Entries after “also recorded” stand apart in the source; their conditions may differ.
Experiments:
HIV-1 HXB2 wild type = experiment: HIV-1 4-day replication assay, wild type strain (p24 antigen ELISA); type: cell-based; conditions: for IC50: Human immunodeficiency virus 1, HXB2, 96 h, C8166 T-cells, 4-day replication, p24
Method: (§1) HIV-1 4-day Replication Assays
(§2) C8166 T-cells were washed and infected with HIV-1 (strains HXB2wt and HXB2AZTres, RT amino acid changes 67N, 70R, 215F, 219Q) at low multiplicity of infection for one hour at room temperature. The cells were then washed and distributed (5×10^4 cells/well) in triplicate into the wells of 96-well cell culture plates containing different concentrations of inhibitors. The plates were then incubated at 37° C. for 4 days. The cell-free culture fluid was then harvested and assayed for levels of p24 viral antigen using a commercially available ELISA kit (Murex), according to the manufacturers' instructions. Cytotoxicity was evaluated by distributing (5×10^4 cells/well) uninfected C8166 T-cells into triplicate wells of 96-well cell culture plates containing different concentrations of inhibitor and incubating the plates at 37° C. After 4 days, 25 μl of XTT, which is metabolised by viable but not dead cells was added and the plates incubated for a further 3 hours at 37° C. Finally, the absorbance was read at a wavelength of 450 nm.

HIV-1 HXB2 AZT resistant = experiment: microbe, parasite or virus in culture; type: cell-based; conditions: for IC50: Human immunodeficiency virus 1, HXB2, C8166, 96 h, read-out: HIV-1 HXB2 (IC50 μM) AZT resistant
Method: as §1, §2

HIV-1 [1] = experiment: HIV-1 based LUCIA, all other cell lines tested; conditions: Human immunodeficiency virus 1
Source text: Retroviral Transductions (LUCIA).

HIV-1 [2] = experiment: HIV-1 based luciferase assay (LUCIA) on Jurkat T-cells; type: cell-based; conditions: FIG. 5
HIV-1 RT = target: T1, HIV-1 RT (Human immunodeficiency virus type 1 group M subtype B, UniProt P04585); experiment: Chemilluminescent HIV-1 reverse transcriptase assay; type: biochemical; conditions: FIG. 6
T1 construct: chemilluminescent HIV-1 reverse transcriptase assays
Source text: Control RT inhibition using nevirapine (□) is also shown.

HeLa cells = experiment: Clonogenic survival assay, sensitisation to ionising radiation; type: cell-based, human
Method: (§3) Sensitisation of Cells to Ionising Radiation or DNA Double Strand Break Chemotherapies
(§4) The HeLa line was used for ionising radiation studies while LoVo was used for studies with chemotherapeutic agents. […] After 1 hour, a concentration range of either etoposide (FIG. 2), camptothecin (FIG. 3) or doxorubicin (FIG. 4) was added. […] For all treatments, after a further 16 hours incubation, drug containing media was removed and fresh media added prior to a further incubation of 10 days before the staining of colonies with Giemsa. All compounds were solubilised in DMSO, with a final concentration on cells of no more than 0.1%. Resulting colonies containing >50 cells were counted as positives.

LoVo cells = experiment: Clonogenic survival assay, sensitisation to DNA double strand break chemotherapeutics; type: cell-based, human; conditions: 10 μM of compound
Method: as §3, §4

[3] = Cytotoxicity on uninfected C8166 T-cells (XTT dye reduction); type: cell-based; conditions: human, uninfected C8166 T-cells, read-out: 50% cytotoxic concentration (CC50)
Method: as §2

C8166 T-cells = experiment: as above; type: cell-based; conditions: 4 days, XTT, FIG. 8C
Method: as §2

Compound | IC50 (HIV-1 HXB2 wild type) [µM] | IC50 (HIV-1 HXB2 AZT resistant) [µM] | inhibition of HIV-1 replication (HIV-1 HXB2 wild type; 4-day replication assays, FIG. 8) | IC50 (HIV-1 [1]) [nM] | IC50 (HIV-1 [2]; Human immunodeficiency virus 1, Jurkat, read-out: IC50 in HIV-1 based LUCIA, Jurkat T-cells) [nM] | inhibition of retroviral vector transduction (LUCIA) (HIV-1 [2]; Jurkat T-cells) | inhibition of HIV-1 RT (HIV-1 RT) | sensitisation of cells to ionising radiation (% survival) (HeLa cells; HeLa cells, compound at 0.5 μM and 2 μM, FIG. 1) | sensitising tumour derived cell lines to DNA double strand break inducing agents (HeLa cells; summary of FIGS. 1–4 (HeLa and LoVo)) | sensitisation of cells to etoposide (% survival) (LoVo cells; FIG. 2) | sensitisation of cells to camptothecin (% survival) (LoVo cells; FIG. 3) | sensitisation of cells to doxorubicin (% survival) (LoVo cells; FIG. 4) | inhibition of HIV-1 replication, wild-type versus AZT resistant strain (HIV-1 HXB2 AZT resistant; 4-day replication assays, FIG. 8A, 8B) | CC50 at 4 days [3] [nM] | cytotoxicity (percentage of viable cells) (C8166 T-cells)
Cc1cn([C@H]2C[C@H](N=[N+]=[N-])[C@@H](CO)O2)c(=O)[nH]c1=O [AZT, 3′-azido-3′-deoxythymidine, reference compound] | 0.002 | 0.05 | – | – | – | – | – | – | – | – | – | – | – | – | –
O=c1cc(-c2cccc3c2Sc2ccccc2S3)oc(N2CCOCC2)c1 [Compound 4, 2-Thianthren-1-yl-6-morpholin-4-yl-pyran-4-one] | 0.1 | 0.06 | inhibits HIV-1 replication | 1000 to 10000 | ~1000 | can inhibit recombinant retroviral vector infections; also recorded: efficiently inhibit HIV-1 LUCIA at low micromolar concentrations | does not inhibit HIV-1 RT | can sensitise cells to ionising radiation | significant effect on sensitising tumour derived cell lines to DNA double strand break inducing agents | can sensitise cells to etopside | can sensitise cells to camptothecin | can sensitise cells to doxorubicin | inhibits HIV-1 replication equally well in both wild-type and AZT resistant HIV-1 strains; also recorded: inhibited HIV-1 replication equally well | > 20000 | No significant cytotoxicity; also recorded: no significant cytotoxic effects

— patent US7049313B2, “ATM inhibitors” (Kudos Pharmaceuticals Ltd., priority 2002, dated 2006)
